From PMC8206213, “An L-2-hydroxyglutarate biosensor based on specific transcriptional regulator LhgR” (Nature Communications, 2021)
Where “and” joins values, the source holds several entries; their conditions need not be identical. Identical values can stand only once. Like-named read-outs stand apart in the source and are kept apart here.

Columns and labels:
[1] = tested on: LHGFR0N3C; experiment: Influence of other compounds on the response of purified LHGFR0N3C to L-2-HG; assay type: binding, Pseudomonas putida W619; conditions: Suppl. Fig. 9a, three replicates
Procedure: (§1) Purified L-2-HG biosensors and different compounds were diluted by 50 mM Tris-HCl buffer (pH 7.4), mixed together in a black 96-well plate at a volume ratio of 3:1, and the fluorescence intensities were measured using an EnSight microplate reader (PerkinElmer, USA) with excitation at 430 nm, emission at 485 nm (mTFP) and 528 nm (Venus). […] The [L-2-HG], Kd, and p refer to the L-2-HG concentration, apparent dissociation constant, and Hill slope, respectively. Emission spectra were recorded at 430 nm excitation, in steps of 2 nm. Excitation spectra were recorded using emission at 550 nm, excitation from 380 to 535 nm in steps of 2 nm.

[2] = tested on: LHGFR0N7C; experiment: Influence of other compounds on the response of purified LHGFR0N7C to L-2-HG; assay type: binding, Pseudomonas putida W619; conditions: Suppl. Fig. 9b, three replicates
Procedure: as §1

[3] = tested on: LHGFR0N7C; experiment: Specificity of purified LHGFR0N7C, emission ratio with 240 μM compounds; assay type: binding, Pseudomonas putida W619; conditions: 240 μM compound
Procedure: as §1

[4] = tested on: LHGFR0N3C; experiment: Specificity of purified LHGFR0N3C, emission ratio with 240 μM compounds; assay type: binding, Pseudomonas putida W619; conditions: 240 μM compound
Procedure: as §1

[5] = tested on: LhgR; experiment: EMSA, effect of compounds on LhgR binding to the lhgO promoter region F1; design: species or system Pseudomonas putida W619; conditions: 50 mM compound, 10 nM F1, 60 nM LhgR
Procedure: Electrophoretic mobility shift assays (EMSAs) were carried out using the DNA fragment (F1 or F2) and purified LhgR. The DNA fragments were first amplified by primer pairs F1-F/F1-R and F2-F/F2-R, respectively. Then, either fragment at a concentration of 10 nM DNA was incubated with LhgR (0–160 nM) in 20 μL EMSA binding buffer (10 mM Tris-HCl [pH 7.4], 50 mM KCl, 0.5 mM EDTA, 10% [vol/vol] glycerol, and 1 mM dithiothreitol [DTT]). The binding reactions were carried out at 30 °C for 30 min. Electrophoresis was performed on 6% native polyacrylamide gels at 4 °C and 170 V (constant voltage) for about 45 min, followed by staining with SYBR green I (TaKaRa, China) and photographing. Analysis of the interaction between lhgO promoter region (F1) and LHGFR was performed using the same procedure.
To characterize the effector of LhgR, purified LhgR was first incubated with L-lysine, 5-aminovalerate, glutarate, L-2-HG, D-2-HG, 2-KG, or succinate at 30 °C for 15 min, followed by incubation with the added DNA fragments at 30 °C for 30 min. The mixtures were subsequently subjected to electrophoresis.

[6] = tested on: P. putida KT2440; assay type: cell-based, Pseudomonas putida KT2440
[7] = tested on: P. putida KT2440; assay type: cell-based, Pseudomonas putida KT2440; conditions: Fig. 4j
Procedure: The bacterial strains used in this study are listed in Supplementary Data 1. E. coli and its derivatives were cultured in Luria–Bertani (LB) broth at 37 °C and 180 rpm. P. putida KT2440 and its derivatives were grown in minimal salt mediums (MSMs) containing different carbon sources at 30 °C and 200 rpm. Antibiotics were used at the following concentrations: tetracycline at 30 μg mL^−1; kanamycin at 50 μg mL^−1; ampicillin at 100 μg mL^−1; spectinomycin, at 50 μg mL^−1; and chloramphenicol at 40 μg mL^−1.

[8] = L-2-HG alone or with the compound

O=C(O)/C=C/C(=O)O [Fumarate]
Emission ratio [1, 8]: 1.9538 and 2.042 and 2.049 | Emission ratio [2, 8]: 2.613 and 2.5931 and 2.59 | Emission ratio [3]: 1.695 and 1.71 and 1.714 | Induction of emission ratio changes [3]: None | Emission ratio [4]: 1.378 and 1.374 and 1.399 | Induction of emission ratio changes [4]: None

O=C(O)CCC(=O)C(=O)O [2-KG, 2-ketoglutarate]
Emission ratio [1, 8]: 2.007 and 2.049 and 2.099 | Emission ratio [2, 8]: 2.436 and 2.603 and 2.441 | Emission ratio [3]: 1.701 and 1.693 and 1.728 | Induction of emission ratio changes [3]: None | Effect on LhgR binding to the lhgO promoter region F1 [5]: observed only in the presence of L-2-HG | Emission ratio [4]: 1.349 and 1.385 and 1.381 | Induction of emission ratio changes [4]: None

CC(=O)C(=O)O [Pyruvate, pyruvate]
Emission ratio [1, 8]: 2.0125 and 2.04 and 2.083 | Emission ratio [2, 8]: 2.56 and 2.596 and 2.595 | Emission ratio [3]: 1.667 and 1.6731 and 1.709 | Induction of emission ratio changes [3]: None | Emission ratio [4]: 1.366 and 1.361 and 1.386 | Induction of emission ratio changes [4]: None

OC[C@H]1OC(O)[C@H](O)[C@@H](O)[C@@H]1O (stereo partly drawn) [Glucose, glucose]
Extracellular L-2-HG accumulation ([6]; DlhgO, 0 h, Fig. 4l): 0.0018 and 0.00159 and 0.00178 | Extracellular L-2-HG accumulation ([6]; DlhgO, 2 h, Fig. 4k): 0.00214 and 0.00144 and 0.00151 | Extracellular L-2-HG accumulation ([6]; DlhgO, 2 h, Fig. 4l): 0.00161 and 0.00173 and 0.00155 | Extracellular L-2-HG accumulation ([6]; DlhgO, 4 h, Fig. 4l): 0.00126 and 0.00158 and 0.00143 | Extracellular L-2-HG accumulation ([6]; DlhgO, 6 h, Fig. 4k): 0.0027 and 0.00158 and 0.00192 | Extracellular L-2-HG accumulation ([6]; DlhgO, 6 h, Fig. 4l): 0.00592 and 0.00434 and 0.00414 | Extracellular L-2-HG accumulation ([6]; DlhgO, 8 h, Fig. 4l): 0.00588 and 0.0049 and 0.00675 | Extracellular L-2-HG accumulation ([6]; DlhgO, 10 h, Fig. 4k): 0.00624 and 0.00847 and 0.00636 | Extracellular L-2-HG accumulation ([6]; DlhgO, 10 h, Fig. 4l): 0.00724 and 0.00794 and 0.00631 | Extracellular L-2-HG accumulation ([6]; DlhgO, 12 h, Fig. 4k): 0.0023 and 0.00219 and 0.00146 | Extracellular L-2-HG accumulation ([6]; DlhgO, 12 h, Fig. 4l): 0.0051 and 0.00546 and 0.00628 | Extracellular L-2-HG accumulation ([6]; DlhgO, 14 h, Fig. 4l): 0.00618 and 0.0058 and 0.00573 | Extracellular L-2-HG accumulation ([6]; DlhgO, 16 h, Fig. 4k): 0.00357 and 0.00321 and 0.00356 | Extracellular L-2-HG accumulation ([6]; DlhgO, 16 h, Fig. 4l): 0.00553 and 0.0046 and 0.00552 | Extracellular L-2-HG accumulation ([6]; WT, 0 h, Fig. 4k): 6.56E-04 and 9.68E-04 and 7.73E-04 | Extracellular L-2-HG accumulation ([6]; WT, 0 h, Fig. 4l): 9.79E-04 and 0.00104 and 6.27E-04 | Extracellular L-2-HG accumulation ([6]; WT, 2 h, Fig. 4k): 1.95E-04 and 2.26E-04 and 1.15E-04 | Extracellular L-2-HG accumulation ([6]; WT, 2 h, Fig. 4l): 0.00114 and 7.97E-04 and 9.51E-04 | Extracellular L-2-HG accumulation ([6]; WT, 4 h, Fig. 4l): 5.39E-04 and 5.72E-04 and 5.29E-04 | Extracellular L-2-HG accumulation ([6]; WT, 6 h, Fig. 4l): 0.00521 and 0.00557 and 0.00468 | Extracellular L-2-HG accumulation ([6]; WT, 8 h, Fig. 4k): 0.00293 and 0.00233 and 0.00276 | Extracellular L-2-HG accumulation ([6]; WT, 8 h, Fig. 4l): 0.0081 and 0.00438 and 0.0052 | Extracellular L-2-HG accumulation ([6]; WT, 10 h, Fig. 4l): 0.00453 and 0.00483 and 0.00472 | Extracellular L-2-HG accumulation ([6]; WT, 12 h, Fig. 4l): 0.00448 and 0.00573 and 0.00522 | Extracellular L-2-HG accumulation ([6]; WT, 14 h, Fig. 4k): 0.00683 and 0.00582 and 0.00462 | Extracellular L-2-HG accumulation ([6]; WT, 14 h, Fig. 4l): 0.0046 and 0.00456 and 0.00492 | Extracellular L-2-HG accumulation ([6]; WT, 16 h, Fig. 4k): 0 | Extracellular L-2-HG accumulation ([6]; WT, 16 h, Fig. 4l): 0.00403 and 0.00579 and 0.0044 | Growth ([7]; DlhgO, 0 h): 0.077 and 0.079 and 0.073 | Growth ([7]; DlhgO, 2 h): 0.083 and 0.078 and 0.075 | Growth ([7]; DlhgO, 4 h): 0.24 and 0.208 and 0.228 | Growth ([7]; DlhgO, 6 h): 0.666 and 0.603 and 0.661 | Growth ([7]; DlhgO, 8 h): 1.5 and 1.401 and 1.461 | Growth ([7]; DlhgO, 10 h): 3.165 and 3.065 | Growth ([7]; DlhgO, 12 h): 3.835 and 3.65 and 3.86 | Growth ([7]; DlhgO, 14 h): 3.605 and 3.535 and 3.66 | Growth ([7]; DlhgO, 16 h): 3.66 and 3.5 and 3.7 | Growth ([7]; WT, 0 h): 0.077 and 0.08 and 0.081 | Growth ([7]; WT, 2 h): 0.079 and 0.092 | Growth ([7]; WT, 4 h): 0.25 and 0.292 and 0.281 | Growth ([7]; WT, 6 h): 0.635 and 0.605 and 0.701 | Growth ([7]; WT, 8 h): 1.404 and 1.446 and 1.5 | Growth ([7]; WT, 10 h): 2.675 and 2.785 and 2.9 | Growth ([7]; WT, 12 h): 3.11 and 3.205 and 3.1 | Growth ([7]; WT, 14 h): 3.13 and 3.115 and 3.035 | Growth ([7]; WT, 16 h): 3.015 and 3.115 and 3.15

C[C@H](O)C(=O)O [L-Lactate, L-lactate]
Emission ratio [1, 8]: 2.088 and 2.079 and 2.04 | Emission ratio [2, 8]: 2.6205 and 2.619 and 2.644 | Emission ratio [3]: 1.748 and 1.739 and 1.741 | Induction of emission ratio changes [3]: None | Emission ratio [4]: 1.397 and 1.412 and 1.41 | Induction of emission ratio changes [4]: None

O=C(O)CC(O)(CC(=O)O)C(=O)O [Citrate]
Emission ratio [1, 8]: 1.986 and 2.033 and 2.109 | Emission ratio [2, 8]: 2.561 and 2.588 and 2.595 | Emission ratio [3]: 1.665 and 1.672 and 1.697 | Induction of emission ratio changes [3]: None | Emission ratio [4]: 1.344 and 1.397 and 1.391 | Induction of emission ratio changes [4]: None

O=C(O)C[C@H](O)C(=O)O [L-Malate, L-malate]
Emission ratio [1, 8]: 2.062 and 2.063 and 2.08 | Emission ratio [2, 8]: 2.598 and 2.599 and 2.61 | Emission ratio [3]: 1.654 and 1.687 and 1.723 | Induction of emission ratio changes [3]: None | Emission ratio [4]: 1.354 and 1.373 (2×) | Induction of emission ratio changes [4]: None

Nc1ncnc2c1ncn2[C@@H]1O[C@H](COP(=O)(O)OP(=O)(O)OP(=O)(O)O)[C@@H](O)[C@H]1O [ATP]
Emission ratio ([1]; 50 μM ATP): 2.0763 and 2.03 and 2.053 | Emission ratio ([1]; 100 μM ATP): 2.022 and 2.017 and 2.045 | Emission ratio ([1]; 500 μM ATP): 2.063 (2×) and 2.059 | Emission ratio ([1]; 1 mM ATP): 2.142 and 2.082 and 2.1362 | Emission ratio ([1]; 5 mM ATP): 2.1045 and 2.1074 and 2.154 | Emission ratio ([2]; 50 μM ATP): 2.546 and 2.581 and 2.59 | Emission ratio ([2]; 100 μM ATP): 2.59 and 2.574 and 2.618 | Emission ratio ([2]; 500 μM ATP): 2.6191 and 2.584 and 2.589 | Emission ratio ([2]; 1 mM ATP): 2.6148 and 2.611 (2×) | Emission ratio ([2]; 5 mM ATP): 2.6574 and 2.624 and 2.63

O=C(O)/C=C(/CC(=O)O)C(=O)O [Cis-aconitate, cis-aconitate]
Emission ratio [1, 8]: 2.04 and 2.059 and 2.056 | Emission ratio [2, 8]: 2.594 and 2.591 and 2.61 | Emission ratio [3]: 1.7035 and 1.722 and 1.738 | Induction of emission ratio changes [3]: None | Emission ratio [4]: 1.358 and 1.383 and 1.3936 | Induction of emission ratio changes [4]: None

C[C@@H](O)C(=O)O [D-Lactate, D-lactate]
Emission ratio [1, 8]: 2.084 and 2.089 and 2.108 | Emission ratio [2, 8]: 2.595 and 2.609 and 2.633 | Emission ratio [3]: 1.7153 and 1.693 and 1.686 | Induction of emission ratio changes [3]: None | Emission ratio [4]: 1.395 | Induction of emission ratio changes [4]: None

O=C(O)CC(=O)C(=O)O [Oxaloacetate]
Emission ratio [1, 8]: 2.024 and 2.069 and 2.088 | Emission ratio [2, 8]: 2.5106 and 2.58 and 2.608 | Emission ratio [3]: 1.671 (2×) and 1.68 | Induction of emission ratio changes [3]: None | Emission ratio [4]: 1.3879 and 1.4027 and 1.379 | Induction of emission ratio changes [4]: None
